Experimental data reported in paper PMC4911353, “Pharmacologic Inhibition of Host Phosphodiesterase-4 Improves Isoniazid-Mediated Clearance of Mycobacterium tuberculosis” (Frontiers in Immunology, 2016).

Experiments:
Pde4 = test: qPCR of host Pde4 gene expression in Mtb-infected mouse lungs; format: in vivo, mice; settings: 14 days of treatment (28 days postinfection)
Method: Total lung RNA (200 ng) was reverse-transcribed using Sprint RT kit (Clontech, CA, USA); 10 ng of cDNA were used for quantitative real-time PCR (qPCR), with Brilliant II SYBR master mix (Agilent Technologies, CA, USA) and gene-specific primers in a Stratagene Mx3005P instrument (Agilent Technologies, CA, USA). ROX was included in each reaction as an internal control. The qPCR assay was performed using four mouse samples in duplicate per group; the data were analyzed using MxPro Software (Agilent Technologies, CA, USA). Transcript levels of Gapdh were used as a reference against the test genes. Fold change in gene expression was calculated using the formula 2^−ΔΔCt, where ΔCt is the difference in threshold cycle (Ct) between the target gene and Gapdh; and ΔΔCt is the […] between untreated and CC-11050-treated samples. Primers were designed based on nucleotide sequences obtained from PrimerBank.^3

Mtb-infected mouse lungs = test: Genome-wide lung transcriptome (microarray, IPA network/GO analysis) of Mtb-infected mice; format: in vivo; settings: TNF-a regulon network

## CCOc1cc([C@@H](CS(C)(=O)=O)N2Cc3cccc(NC(=O)C4CC4)c3C2=O)ccc1OC [CC-11050, N-[2-[(1S)-1-(3-ethoxy-4-methoxyphenyl)-2-(methylsulfonyl)ethyl]-2,3-dihydro-3-oxo-1H-isoindol-4-yl]-(9Cl) cyclopropanecarboxamide]
Pde4
  Pde4Bv3 (Pde4B variant 3) expression in lungs versus Mtb-infected untreated: No significant change
Mtb-infected mouse lungs
  Ins1 expression: 0
